Reference: PubChem BioAssay AID2060895 (Molecular Pharmacology Branch, DTP, NCI, 2025)

System: PDC 899932-113-R3-J6 complex spheroid viability
Test: Anticancer human tumor 899932-113-R3-J6-PDC patient-derived melanoma cell line growth inhibition [RAS]
Details: for IC50: curve of first compound; for viability, T/C: stronger effect = lower value
How it was run: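 Multi-cell-type spheroids: tumor cells plus HUVEC endothelial cells and mesenchymal stem cells. RAS-pathway inhibitors were combined with targeted agents, each dosed in half-log steps down from clinical Cmax, or from 10 microM when Cmax was unknown.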

[1] = second compound 0.000949 µM, first compound 0.00316 µM
[2] = second compound 0.000949 µM, first compound 0.01 µM
[3] = second compound 0.000949 µM, first compound 0.0316 µM
[4] = second compound 0.000949 µM, first compound 0.1 µM
[5] = second compound 0.003 µM, first compound 0.00316 µM
[6] = second compound 0.003 µM, first compound 0.01 µM
[7] = second compound 0.003 µM, first compound 0.0316 µM
[8] = second compound 0.003 µM, first compound 0.1 µM
[9] = second compound 0.00949 µM, first compound 0.00316 µM
[10] = second compound 0.00949 µM, first compound 0.01 µM
[11] = second compound 0.00949 µM, first compound 0.0316 µM
[12] = second compound 0.00949 µM, first compound 0.1 µM
[13] = second compound 0.03 µM, first compound 0.00316 µM
[14] = second compound 0.03 µM, first compound 0.01 µM
[15] = second compound 0.03 µM, first compound 0.0316 µM
[16] = second compound 0.03 µM, first compound 0.1 µM
[17] = second compound 0.0949 µM, first compound 0.00316 µM
[18] = second compound 0.0949 µM, first compound 0.01 µM
[19] = second compound 0.0949 µM, first compound 0.0316 µM
[20] = second compound 0.0949 µM, first compound 0.1 µM
[21] = second compound 0.3 µM, first compound 0.00316 µM
[22] = second compound 0.3 µM, first compound 0.01 µM
[23] = second compound 0.3 µM, first compound 0.0316 µM
[24] = second compound 0.3 µM, first compound 0.1 µM
[25] = second compound 0.000949 µM, first compound 0.316 µM
[26] = second compound 0.000949 µM, first compound 1 µM
[27] = second compound 0.003 µM, first compound 0.316 µM
[28] = second compound 0.003 µM, first compound 1 µM
[29] = second compound 0.00949 µM, first compound 0.316 µM
[30] = second compound 0.00949 µM, first compound 1 µM
[31] = second compound 0.03 µM, first compound 0.316 µM
[32] = second compound 0.03 µM, first compound 1 µM
[33] = second compound 0.0949 µM, first compound 0.316 µM
[34] = second compound 0.0949 µM, first compound 1 µM
[35] = second compound 0.3 µM, first compound 0.316 µM
[36] = second compound 0.3 µM, first compound 1 µM
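Throughout, for viability, T/C: spheroids exposed to agents for seven days before readout; 100% = DMSO vehicle control wells.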

For CC(C)n1nc(-c2ccc3oc(N)nc3c2)c2c(N)ncnc21 + CCn1c(-c2cc(N3CCN(C)CC3)cnc2C(C)OC)c2c3cc(ccc31)-c1csc(n1)CC(NC(=O)C1CC1C)C(=O)N1CCCC(N1)C(=O)OCC(C)(C)C2, the IC50 (second compound 0.000949 µM) was 34.8 nM, the IC50 (second compound 0.003 µM) was less than 0.316 nM and the IC50 (second compound 0.00949 µM) was less than 0.316 nM. For the same compound, the IC50 (second compound 0.03 µM) was less than 0.316 nM, the IC50 (second compound 0.0949 µM) was less than 0.316 nM and the IC50 (second compound 0.3 µM) was less than 0.316 nM. It also gave a viability, T/C (second compound 0.000949 µM, first compound 0.000316 µM) of 82%, a viability, T/C (second compound 0.000949 µM, first compound 0.001 µM) of 63.3% and a viability, T/C [1] of 73.7%. It also gave a viability, T/C [2] of 65%, a viability, T/C [3] of 51.4% and a viability, T/C [4] of 30.5%. The viability, T/C (second compound 0.003 µM, first compound 0.000316 µM) was 35.6%, the viability, T/C (second compound 0.003 µM, first compound 0.001 µM) was 40.4% and the viability, T/C [5] was 37%. It also gave a viability, T/C [6] of 34.4%, a viability, T/C [7] of 29.1% and a viability, T/C [8] of 18.6%. The viability, T/C (second compound 0.00949 µM, first compound 0.000316 µM) was 4.03%, the viability, T/C (second compound 0.00949 µM, first compound 0.001 µM) was 3.88% and the viability, T/C [9] was 4.42%. The viability, T/C [10] was 3.62%, the viability, T/C [11] was 2.93% and the viability, T/C [12] was 2.22%. The viability, T/C (second compound 0.03 µM, first compound 0.000316 µM) was 2.41%, the viability, T/C (second compound 0.03 µM, first compound 0.001 µM) was 2.53% and the viability, T/C [13] was 2.94%. The viability, T/C [14] was 2.25%, the viability, T/C [15] was 2.43% and the viability, T/C [16] was 0.98%. For the same compound, the viability, T/C (second compound 0.0949 µM, first compound 0.000316 µM) was 2.52%, the viability, T/C (second compound 0.0949 µM, first compound 0.001 µM) was 2.03% and the viability, T/C [17] was 1.78%. It also gave a viability, T/C [18] of 1.41%, a viability, T/C [19] of 1.07% and a viability, T/C [20] of 0.65%. The viability, T/C (second compound 0.3 µM, first compound 0.000316 µM) was 1.86%, the viability, T/C (second compound 0.3 µM, first compound 0.001 µM) was 1.82% and the viability, T/C [21] was 2.06%. For the same compound, the viability, T/C [22] was 1.52%, the viability, T/C [23] was 1.91% and the viability, T/C [24] was 0.73%.

Compound CCN1CCN(Cc2ccc(Nc3ncc(F)c(-c4cc(F)c5nc(C)n(C(C)C)c5c4)n3)nc2)CC1 + CCn1c(-c2cc(N3CCN(C)CC3)cnc2C(C)OC)c2c3cc(ccc31)-c1csc(n1)CC(NC(=O)C1CC1C)C(=O)N1CCCC(N1)C(=O)OCC(C)(C)C2 has an IC50 (second compound 0.000949 µM) of 220 nM, an IC50 (second compound 0.003 µM) of less than 3.16 nM and an IC50 (second compound 0.00949 µM) of less than 3.16 nM. For the same compound, the IC50 (second compound 0.03 µM) was less than 3.16 nM, the IC50 (second compound 0.0949 µM) was less than 3.16 nM and the IC50 (second compound 0.3 µM) was less than 3.16 nM. The viability, T/C [1] was 80.5%, the viability, T/C [2] was 75.5% and the viability, T/C [3] was 75.2%. It also gave a viability, T/C [4] of 63.3%, a viability, T/C [25] of 43.7% and a viability, T/C [26] of 18.3%. For the same compound, the viability, T/C [5] was 38.1%, the viability, T/C [6] was 39.2% and the viability, T/C [7] was 33.3%. It also gave a viability, T/C [8] of 30.1%, a viability, T/C [27] of 23.8% and a viability, T/C [28] of 10.2%. The viability, T/C [9] was 4.63%, the viability, T/C [10] was 4.32% and the viability, T/C [11] was 4.31%. It also gave a viability, T/C [12] of 3.66%, a viability, T/C [29] of 5.16% and a viability, T/C [30] of 6.09%. It also gave a viability, T/C [13] of 3.02%, a viability, T/C [14] of 2.66% and a viability, T/C [15] of 2.79%. It also gave a viability, T/C [16] of 2.48%, a viability, T/C [31] of 3.21% and a viability, T/C [32] of 2.94%. The viability, T/C [17] was 2.31%, the viability, T/C [18] was 2.1% and the viability, T/C [19] was 2.15%. It also gave a viability, T/C [20] of 2.33%, a viability, T/C [33] of 2.24% and a viability, T/C [34] of 2.47%. For the same compound, the viability, T/C [21] was 1.97%, the viability, T/C [22] was 2.12% and the viability, T/C [23] was 2.2%. The viability, T/C [24] was 2.05%, the viability, T/C [35] was 1.76% and the viability, T/C [36] was 2.01%.

C[C@@H](NC(=O)c1ncnc(N)c1Cl)c1ncc(C(=O)Nc2cc(C(F)(F)F)c(Cl)cn2)s1 + CCn1c(-c2cc(N3CCN(C)CC3)cnc2C(C)OC)c2c3cc(ccc31)-c1csc(n1)CC(NC(=O)C1CC1C)C(=O)N1CCCC(N1)C(=O)OCC(C)(C)C2 was tested, and the IC50 (second compound 0.000949 µM) was 5630 nM, the IC50 (second compound 0.003 µM) was 2600 nM and the IC50 (second compound 0.00949 µM) was less than 31.6 nM. The IC50 (second compound 0.03 µM) was less than 31.6 nM, the IC50 (second compound 0.0949 µM) was less than 31.6 nM and the IC50 (second compound 0.3 µM) was less than 31.6 nM. The viability, T/C [3] was 104%, the viability, T/C [4] was 113% and the viability, T/C [25] was 124%. It also gave a viability, T/C [26] of 127%, a viability, T/C (second compound 0.000949 µM, first compound 3.16 µM) of 82% and a viability, T/C (second compound 0.000949 µM, first compound 10 µM) of 18.2%. The viability, T/C [7] was 66.6%, the viability, T/C [8] was 76.1% and the viability, T/C [27] was 83.8%. It also gave a viability, T/C [28] of 82.1%, a viability, T/C (second compound 0.003 µM, first compound 3.16 µM) of 44.4% and a viability, T/C (second compound 0.003 µM, first compound 10 µM) of 12%. It also gave a viability, T/C [11] of 8.34%, a viability, T/C [12] of 12.9% and a viability, T/C [29] of 15.3%. For the same compound, the viability, T/C [30] was 13.6%, the viability, T/C (second compound 0.00949 µM, first compound 3.16 µM) was 9.29% and the viability, T/C (second compound 0.00949 µM, first compound 10 µM) was 4.48%. For the same compound, the viability, T/C [15] was 3.38%, the viability, T/C [16] was 2.96% and the viability, T/C [31] was 2.78%. It also gave a viability, T/C [32] of 2.66%, a viability, T/C (second compound 0.03 µM, first compound 3.16 µM) of 2.41% and a viability, T/C (second compound 0.03 µM, first compound 10 µM) of 2.96%. For the same compound, the viability, T/C [19] was 2.75%, the viability, T/C [20] was 2.95% and the viability, T/C [33] was 2.73%. For the same compound, the viability, T/C [34] was 2.82%, the viability, T/C (second compound 0.0949 µM, first compound 3.16 µM) was 2.56% and the viability, T/C (second compound 0.0949 µM, first compound 10 µM) was 2.32%. The viability, T/C [23] was 2.53%, the viability, T/C [24] was 2.03% and the viability, T/C [35] was 2.73%. The viability, T/C [36] was 2.35%, the viability, T/C (second compound 0.3 µM, first compound 3.16 µM) was 3.08% and the viability, T/C (second compound 0.3 µM, first compound 10 µM) was 2.77%.
